Results reported in the Bradley open melting point set (2014).
Where “and” joins values, the source holds several entries; their conditions need not be identical. Equal entries are not always repeated.

| Compound | melting point |
| --- | --- |
| CN1C(CCl)Nc2cc(Cl)c(S(N)(=O)=O)cc2S1(=O)=O (configuration not stated) [methyclothiazide] | 225 °C |
| COC(=O)n1c(C)c(C)c2ccccc21 [methyl 2,3-dimethyl-1H-indole-1-carboxylate] | 50 °C |
| CCC1=Nc2ccccc2C1(C)C(=O)OC (configuration not stated) [methyl 2-ethyl-3-methyl-3H-indole-3-carboxylate] | 72 °C |
| COC(=O)c1ccc(OC)cc1O [methyl 2-hydroxy-4-methoxybenzoate] | 48 °C |
| COC(=O)c1ccccc1[N+](=O)[O-] [methyl 2-nitrobenzoate] | -13 °C |
| COC(=O)c1ccc(-c2cccc([N+](=O)[O-])c2)cc1 [methyl 3'-nitrobiphenyl-4-carboxylate] | 143 °C |
| COC(=O)C1=Nc2ccccc2C1(C)C [methyl 3,3-dimethyl-3H-indole-2-carboxylate] | 75 °C |
| COC(=O)c1ccc(C)c(C)c1 [methyl 3,4-dimethylbenzoate] | 36 °C |
| COC(=O)c1cccc(N)c1 [methyl 3-aminobenzoate] | 51 °C |
| COC(=O)c1ccc(OC)c(C#N)c1 [methyl 3-cyano-4-methoxybenzoate] | 122 °C |
| COC(=O)c1ccc(C#N)cc1 [methyl 4-cyanobenzoate] | 67 °C |
| COC(=O)c1ccc(F)cc1O [methyl 4-fluorosalicylate] | 39 °C |
| COC(=O)c1ccc(C=O)cc1 [methyl 4-formylbenzoate] | 61 °C |
| COC(=O)c1ccc(I)c([N+](=O)[O-])c1 [methyl 4-iodo-3-nitrobenzoate] | 103 °C |
| COC(=O)c1ccc(I)cc1 [methyl 4-iodobenzoate] | 115 °C |
| COC(=O)c1ccc([N+](=O)[O-])cc1 [methyl 4-nitrobenzoate] | 96 °C |
| COC(=O)CCC(C)C1CCC2C3C(=O)C(Br)C4CCCCC4(C)C3CCC12C (configuration not stated) [methyl 6-bromo-7-oxocholan-24-oate] | 124 °C |
| COC(=O)CCC(C)C1CCC2C3C(OC(C)=O)C(Br)C4CCCCC4(C)C3CCC12C (configuration not stated) [methyl 7-(acetyloxy)-6-bromocholan-24-oate] | 159 °C |
| COC(=O)[C@H](C)O [methyl (S)-lactate] | -44 °C |
| COC(C)=O [methyl acetate] | -98 °C |
| CO[C@H]1O[C@H](CO)[C@@H](O)[C@H](O)[C@H]1O [methyl alpha-d-glucopyranoside] | 169 °C |
| COC(=O)c1ccccc1N [methyl anthranilate] | 24 °C |
| CCCCCCCCCCCCCCCCCCCC(=O)OC [methyl eicosanoate] | 48 °C |
| CCCCCC(=O)OC [methyl hexanoate] | -71 °C |

| Compound | melting point |
| --- | --- |
| COC(=O)c1cc2ccccc2cn1 [methyl isoquinoline-3-carboxylate] | 86 °C |
| CCCCCCCCCCCCCCCC(=O)OC [methyl palmitate] | 31 °C |
| COC(=O)c1ccc2nccnc2c1 [methyl quinoxaline-6-carboxylate] | 98 °C |
| COC(=O)c1ccccc1O [methyl salicylate] | -9 °C |
| CCCCCCCCCCCCCCCCCC(=O)OC [methyl stearate] | 40 °C |
| COC(=O)c1ccccc1OC(C)=O [methyl_2-acetoxybenzoate] | 52 °C |
| COC(=O)c1cc(OC)cc(OC)c1 [methyl_3,5-dimethoxybenzoate] | 43 °C |
| COC(=O)c1ccc(C(C)=O)cc1 [methyl_4-acetylbenzoate] | 95 °C |
| COC(=O)c1ccc(Cl)cc1 [methyl_4-chlorobenzoate] | 44 °C |
| COC(=O)c1ccc(C#N)cc1 [methyl_4-cyanobenzoate] | 62 °C |
| COS(=O)(=O)c1ccc(C)cc1 [methyl_p-toluenesulfonate] | 79 °C |
| CC1CCCCC1 [methylcyclohexane] | -126 °C |
| CC1CCCC1 [methylcyclopentane] | -142 °C |
| CCc1cccc(C)c1N(C(=O)CCl)C(C)COC (configuration not stated) [metolachlor] | 25 °C |
| COc1ccc2c(c1)c1c3n2CCN(C)C3=NCC1 [metralindole] | 164 °C |
| Cc1ncc([N+](=O)[O-])n1CCO [metronidazole] | 160 °C |
| Nc1cc(N2CCCCC2)nc(N)[n+]1[O-] [minoxidil] | 248 °C |
| CCc1c(C)[nH]c2c1C(=O)C(CN1CCOCC1)CC2 (configuration not stated) [molindone] | 180 °C |
| CCCCCCCCCCCCOP(=O)(O)O [mono-n-dodecyl phosphate] | 42 °C |
| CN(C)C(=O)Nc1ccc(Cl)cc1 [monuron] | 172 °C and 174 °C |
| CCOC(=O)Nc1ccc2c(c1)N(C(=O)CCN1CCOCC1)c1ccccc1S2 [moricizine] | 156 °C |
| CCc1cc2cc(OC)c(OC)cc2c(Cc2ccccc2)n1 [moxaverine] | 78 °C |
| CC(C)(C)NCC(O)COc1cccc2c1C[C@H](O)[C@H](O)C2 (some centres not stated) [nadolol] | 125 °C |
| c1ccc2cc3cc4ccccc4cc3cc2c1 [naphthacene] | 357 °C |

| Compound | melting point |
| --- | --- |
| c1ccc2ccccc2c1 [naphthalene] | 83 °C and 80.2 °C |
| O=[N+]([O-])c1ccccc1 [nitrobenzene] [listing 1 of 2 here] | 6 °C |
| O=[N+]([O-])c1ccccc1 [nitrobenzene] [listing 2 of 2 here] | 6 °C |
| O=[N+]([O-])c1ccccc1O [nitrophenol] | 45 °C |
| CCCCCCCCCC#N [nonyl_cyanide] | -15 °C |
| Cc1ccccc1N [o-Toluidine] | -16 °C |
| Oc1ccccc1Cl [o-chlorophenol] | 8 °C |
| Nc1ccccc1[N+](=O)[O-] [o-nitroaniline] | 73 °C |
| O=[N+]([O-])c1ccccc1O [o-nitrophenol] | 45 °C |
| c1ccc(-c2ccccc2-c2ccccc2)cc1 [o-terphenyl] | 57 °C |
| Cc1ccccc1N [o-toluidine] | -24 °C |
| CCCCCCCC#N [octanenitrile] | -45 °C |
| CC(=O)Oc1ccc(C(C)=O)cc1 [p-acetoxy_acetophenone] | 54 °C |
| CC(=O)Oc1ccc(CC#N)cc1 [p-acetoxy_phenylacetonitrile] | 50 °C |
| CC(=O)Oc1ccc(C(N)=O)cc1 [p-acetoxybenzamide] | 179 °C |
| CC(=O)c1ccc(C#N)cc1 [p-acetyl_benzonitrile] | 59 °C |
| COc1ccc(C=O)cc1 [p-anisaldehyde] | 1 °C |
| COc1ccc(N)cc1 [p-anisidine] [listing 1 of 2 here] | 58 °C |
| COc1ccc(N)cc1 [p-anisidine] [listing 2 of 2 here] | 59 °C |
| CC(C)c1ccc(Cl)cc1 [p-chlorocumene] | -12 °C |
| Clc1ccc(Cl)cc1 [p-dichlorobenzene] | 53 °C |
| Oc1ccc(I)cc1 [p-iodophenol] | 94 °C |

Now from value to compound:

| melting point | Compound |
| --- | --- |
| 130 °C | NC(=O)c1cccnc1 [nicotinamide] |
| 186 °C | C[C@H](Cc1ccc(O)c(O)c1)[C@@H](C)Cc1ccc(O)c(O)c1 [nordihydroguaiaretic acid] |
| 220 °C | CCn1cc(C(=O)O)c(=O)c2cc(F)c(N3CCNCC3)cc21 [norfloxacin] |
| 20 °C | CC(=O)c1ccccc1N [o-aminoacetophenone] |
| 113 °C | NC(=O)c1ccccc1N [o-aminobenzamide] |
| 38 °C | COc1ccccc1C=O [o-anisaldehyde] |
| 81 °C | OCc1ccccc1Br [o-bromobenzyl alcohol] |
| 143 °C | NC(=O)c1ccccc1Cl [o-chlorobenzamide] |
| 1 °C | Clc1ccccc1I [o-chloroiodobenzene] |
| 172 °C | N#Cc1ccccc1C(N)=O [o-cyanobenzamide] |
| 122 °C | N#CCc1ccccc1O [o-hydroxy_phenylacetonitrile] |
| 46 °C | O=Cc1ccccc1[N+](=O)[O-] [o-nitrobenzaldehyde] |
| 115 °C | O=C(O)c1ccccc1-c1ccccc1 [o-phenylbenzoic_acid] |
| 102 °C | Nc1ccccc1N [o-phenylenediamine] |
| 44.5 °C | COc1cccc(C=O)c1O [o-vanillin] |
| 29 °C | C=Cc1ccccc1O [o-vinyl_phenol] |
| 201 °C | c1ccc([Si]2(c3ccccc3)O[Si](c3ccccc3)(c3ccccc3)O[Si](c3ccccc3)(c3ccccc3)O[Si](c3ccccc3)(c3ccccc3)O2)cc1 [octaphenylcyclotetrasiloxane] |
| 156 °C | COc1ccc2[nH]c(S(=O)Cc3ncc(C)c(OC)c3C)nc2c1 (configuration not stated) [omeprazole] |
| 346 °C | O=C(O)c1cc(=O)[nH]c(=O)[nH]1 [orotic acid, anhydrous] |

| melting point | Compound |
| --- | --- |
| 346 °C | O=C(O)c1cc(=O)[nH]c(=O)[nH]1 [orotic acid] [listing 1 of 2 here] |
| 345 °C | O=C(O)c1cc(=O)[nH]c(=O)[nH]1 [orotic acid] [listing 2 of 2 here] |
| 148 °C | CC(C)NCC1CCc2cc(CO)c([N+](=O)[O-])cc2N1 (configuration not stated) [oxamniquine] |
| 230 °C | CCCOc1ccc2[nH]c(NC(=O)OC)nc2c1 [oxibendazole] |
| 170 °C | Brc1ccc(-c2ccc(Br)cc2)cc1 [p,p'-dibromobiphenyl] |
| 112 °C | ON=Cc1ccc(O)cc1 [p-Hydroxybenzaldehyde oxime] |
| 37 °C | C=Cc1ccc(C(C)=O)cc1 [p-acetylstyrene] |
| 189 °C | Nc1ccc(C(=O)O)cc1 [p-aminobenzoic_acid] |
| 189 °C | Nc1ccc(O)cc1 [p-aminophenol] |
| 51 °C | N#Cc1ccc(Cc2ccccc2)cc1 [p-benzyl_benzonitrile] |
| 57 °C | O=Cc1ccc(Br)cc1 [p-bromobenzaldehyde] |
| 252 °C | O=C(O)c1ccc(Br)cc1 [p-bromobenzoic acid] |
| 253 °C | O=C(O)c1ccc(Br)cc1 [p-bromobenzoic_acid] |
| 42 °C | N#Cc1ccc(CO)cc1 [p-cyano_benzyl_alcohol] |
| 74 °C | CC(C)(C)c1ccc(C(C)(C)C)cc1 [p-di-tert-butylbenzene] |
| 78 °C | O=Cc1ccc(I)cc1 [p-iodobenzaldehyde] |
| 80 °C | CC(=O)c1ccc([N+](=O)[O-])cc1 [p-nitroacetophenone] |
| 108 °C | O=Cc1ccc([N+](=O)[O-])cc1 [p-nitrobenzaldehyde] |
